Consider one compound from publication PMC12518639, “Apomorphine is a novel necroptosis inhibitor targeting mixed lineage kinase domain-like protein oligomerization” (Cell Death Discovery, 2025).

One experiment deals with p-MLKL. Description: Western blot of phosphorylated MLKL in whole cell lysates. The class given is cell-based, human. The note with it: 8 h. Here is the method:
To identify potential inhibitors of the necroptosis pathway targeting MLKL or the process of p-MLKL pore formation on the membrane, we screened a library of 2150 compounds, including FDA-approved drugs and those in phase 1–3 clinical trials, using THP-1-HMGB1-Lucia™ cells expressing the HMGB1-luciferase fusion protein. The cells were treated with a necroptosis-inducing mixture containing TNF-α, BV6, and Z-VAD-FMK (TBZ) in addition to the compound library (Fig. 1A). The supernatants were harvested to measure luciferase activities for necroptosis. The luciferase activities of cell supernatants treated with TBZ alone were considered as the maximum release (100%) of HMGB1-luciferase. NEC-1, a known RIP1 inhibitor used in both humans and mice, was used as a positive control. […] Next, we performed a propidium iodide (PI) uptake assay to exclude cytotoxic compounds using THP-1 cells. Then, we selected candidate molecules that were arbitrarily less than 30% of those treated with TBZ. […] Next, the inhibition levels of p-MLKL were tested to select MLKL-targeting molecules (Figs. 1C and S1A). Compounds that reduced p-MLKL levels to less than 30% of TBZ-treated controls were considered as potential inhibitors of MLKL phosphorylation. Conversely, compounds that maintained p-MLKL levels above 70% were selected because they are presumed to prevent the formation of pores in the plasma membrane by interfering with oligomerization.
The cells were harvested and lysed in 1× RIPA buffer (R4100-010, GenDEPOT, Katy, TX, USA) containing protease (P3100-001, GenDEPOT) and phosphatase (1862495, Thermo Fisher Scientific) inhibitors. WCLs were then centrifuged at 20,000×g for 30 min at 4 °C and subjected to non-reducing or reducing 8–12% SDS-PAGE gel electrophoresis. The membrane was blocked with 5% non-fat milk in TBS and probed with antibodies. Antibodies to hMLKL (14993S), mMLKL (97705S), phospho-hMLKL (Ser358) (91689S), phospho-mMLKL (Ser345) (37333S), phospho-hRIP1 (Ser166) (65746S), mRIP1 (3493S), phospho-mRIP1 (Ser321) (38662S), phospho-hRIP3 (Ser227) (93654), mRIP3 (95702S), p-mRIP3 (Thr231/Ser232) (91702S), and LDH (2012S) (Cell Signaling Technology, Danvers, MA, USA), and GAPDH (LF-PA0018, Abfrontier, S. Korea), hRIP1 (ab72139, Abcam, Cambridge, UK), hRIP3 (sc-135170, Santa Cruz Biotechnology, Dallas, TX, USA), HMGB1 (ab78923, Abcam), and LAMP1 (ab24170, Abcam) antibodies were used.
Fig. S1 Assessment of p-MLKL inhibition to identify MLKL-targeting molecules. (A) Quantification graph corresponding to Fig. 1C. […] Whole-cell lysates (WCLs) were collected and subjected to Western blot analysis under reducing conditions using antibodies against p-MLKL, MLKL, and GAPDH. The p-MLKL/MLKL ratio was quantified and compared to that of TBZ-treated cells. Data represent the mean of three independent experiments. (B) Quantification graph corresponding to Fig. 1D. […] Cytosolic and membrane fractions were collected and analyzed by Western blot under reducing conditions. The levels of p-MLKL and p-RIP1 were normalized to LDH (cytosolic marker) and LAMP1 (membrane marker), respectively. Quantified ratios were compared to those of TBZ-treated cells (n = 3 independent experiments).

For a further experiment, the system named is THP-1 cells. Nature of the experiment: PI uptake assay after TBZ treatment. The note with it: Homo sapiens; THP-1, TBZ, 8 h. In kind it is cell-based. The procedure: To identify potential inhibitors of the necroptosis pathway targeting MLKL or the process of p-MLKL pore formation on the membrane, we screened a library of 2150 compounds, including FDA-approved drugs and those in phase 1–3 clinical trials, using THP-1-HMGB1-Lucia™ cells expressing the HMGB1-luciferase fusion protein. The cells were treated with a necroptosis-inducing mixture containing TNF-α, BV6, and Z-VAD-FMK (TBZ) in addition to the compound library (Fig. 1A). The supernatants were harvested to measure luciferase activities for necroptosis. The luciferase activities of cell supernatants treated with TBZ alone were considered as the maximum release (100%) of HMGB1-luciferase. NEC-1, a known RIP1 inhibitor used in both humans and mice, was used as a positive control. An initial screening was performed to identify compounds that reduced luciferase activity to within 20% of the TBZ-treated supernatant, and 72 compounds (S1–S72) were selected (Table S1). Among these compounds were four known necroptosis inhibitors of pazopanib (S10), bardoxolone (S16), ponatinib (S17), and dabrafenib (S31), indicating the reliability of this screening assay. […]
PI uptake assays were performed in triplicate to evaluate pore formation on the plasma membrane. […] Fluorescence was recorded using a Varioskan Flash 3001 plate reader (Thermo Fisher Scientific, Waltham, MA, USA).

SMILES strings stand for the structures.

On to `CN1CCc2cccc3c2[C@@H]1Cc1ccc(O)c(O)c1-3` [S62, (6aS)-6-methyl-5,6,6a,7-tetrahydro-4H-dibenzo[de,g]quinoline-10,11-diol], for which the activity at 20 µM in the experiment with p-MLKL (Homo sapiens, THP-1, TBZ and 20 μM compound, whole cell lysates, read-out: p-MLKL/MLKL ratio relative to TBZ-treated cells (% Value)) turned out to be 100%. The “effect on p-MLKL, p-RIP3 and p-RIP1 in whole cell lysates” value with p-MLKL (THP-1, TBZ, 20 μM) is on record as “little to no effect”. The compound further showed a half-inhibitory concentration (IC50) in the experiment with THP-1 cells of 5.7 µM.
